Among the data in patent US9044013B2, “Glyoxime derivative and pest control agent” (KUMIAI CHEMICAL INDUSTRY CO., LTD., priority 2011, dated 2015) are mortality values, retold here.

In this assay the test system is Nilaparvata lugens Stál (brown rice planthopper). The assay is described as follows: Insecticidal action test for Nilaparvata lugens Stál (brown rice planthopper) (immersion test). In kind it is in vivo. The settings on record: 144 h, 500 ppm active ingredient (wettable powder diluted with water), sprouting unhulled rice immersed, 10 2-age larvae, 25° C., after 6 days, no repetition, read-out: insect mortality. On the procedure:
Insecticidal action test for Nilaparvata lugens Stál (Brown Rice Planthopper) (Immersion Test)
A wettable powder prepared based on Formulation Example 2 was diluted with water so that the concentration of active ingredient became 500 ppm. In the diluted liquid was immersed sprouting unhulled rice. The immersed rice was placed in a plastic cup of 60 ml. Into the plastic cup were released 10 2-age larvae of Nilaparvata lugens Stál (brown rice planthopper). The cup was covered with a cap and placed in a thermostat of 25° C. After 6 days, the number of living insects was counted and the mortality of insect was calculated using the calculation formula of Mathematical Expression 1. This test was conducted with no repetition. Insect mortality(%)=[1−(number of living insects)/(number of tested insects)]×100 [Mathematical Expression 1]
The compound Nos. of the compounds which gave an insect mortality of 90% or higher in the above test, are shown below.

Broadly, the mortality is the share of the test organisms that died. As to `CC(C)ON=C(C#N)C(N)=NO` [1-004, 3-amino-3-hydroxyimino-2-isopropoxyiminopropionitrile], the mortality at 500 ppm is at least 90%. Take `CCCON=C(N)C(C#N)=NOCCC` [1-072, 3-Amino-2,3-Bis(Propoxyimino)Propionitrile]: the mortality at 500 ppm is at least 90%.

For the compound `CC(C)ON=C(N)C(C#N)=NOC(C)C` [1-096, 3-amino-2,3-bis(isopropoxyimino)propionitrile], the mortality at 500 ppm is at least 90%. Then `CCCON=C(N)C(C#N)=NOC(C)C` [1-073, 3-amino-2-isopropoxyimino-3-propoxyiminopropionitrile], with at least 90%.
